Numbers after ± are expanded uncertainties.
Experiments:
[1] = xn = mol fraction of the nth substance listed; conditions: 100 kPa, Liquid; for speed of sound: Frequency=3 MHz, Sing-around technique in a fixed-path interferometer; for mass density: Vibrating tube method
[2] = refractive index (Na D-line) (dimensionless); xn = mol fraction of the nth substance listed; conditions: 100 kPa, Liquid, Standard Abbe refractometry

CCCNCCC [dipropylamine] + CN(C)C=O
Conditions	mass density, [1] [kg/m3]	refractive index, [2]	speed of sound, [1] [m/s]
293.15 K, x2 = 0.06	745.894 ± 1.8	1.40543 ± 0.0042	1218.2 ± 1.4
293.15 K, x2 = 0.1071	752.141 ± 1.8	–	1225 ± 1.4
293.15 K, x2 = 0.1556	–	1.40725 ± 0.0042	–
293.15 K, x2 = 0.156	758.933 ± 1.8	–	1232.9 ± 1.4
293.15 K, x2 = 0.1975	764.87 ± 1.9	–	1239.3 ± 1.4
293.15 K, x2 = 0.249	772.54 ± 1.9	–	1248.1 ± 1.4
293.15 K, x2 = 0.2614	–	1.40952 ± 0.0042	–
293.15 K, x2 = 0.3099	782.194 ± 1.9	–	1259.4 ± 1.3
293.15 K, x2 = 0.3463	788.151 ± 1.9	1.4114 ± 0.0043	1266.2 ± 1.3
293.15 K, x2 = 0.3985	797.199 ± 1.9	1.41266 ± 0.0043	1276.9 ± 1.3
293.15 K, x2 = 0.448	806.192 ± 2	–	1287.6 ± 1.3
293.15 K, x2 = 0.4554	–	1.41402 ± 0.0043	–
293.15 K, x2 = 0.4974	815.656 ± 2	–	1299.2 ± 1.3
293.15 K, x2 = 0.5487	825.989 ± 2	1.41645 ± 0.0043	1312 ± 1.3
293.15 K, x2 = 0.6018	–	1.41789 ± 0.0043	–
293.15 K, x2 = 0.6562	849.651 ± 2.1	–	1342.1 ± 1.3
293.15 K, x2 = 0.7033	–	1.42079 ± 0.0043	–
293.15 K, x2 = 0.7514	873.097 ± 2.1	–	1373.4 ± 1.3
293.15 K, x2 = 0.8216	892.212 ± 2.2	1.42444 ± 0.0043	1399.8 ± 1.3
293.15 K, x2 = 0.8501	900.523 ± 2.2	–	1411.2 ± 1.4
293.15 K, x2 = 0.8844	–	1.42653 ± 0.0043	–
293.15 K, x2 = 0.9025	916.508 ± 2.3	–	1433.3 ± 1.4
293.15 K, x2 = 0.9486	931.283 ± 2.3	1.42882 ± 0.0043	1453.4 ± 1.4
298.15 K, x2 = 0.0626	741.577 ± 1.8	1.40259 ± 0.0042	1196.9 ± 1.4
298.15 K, x2 = 0.1083	747.697 ± 1.8	1.40358 ± 0.0042	1204 ± 1.4
298.15 K, x2 = 0.1544	754.025 ± 1.8	1.40443 ± 0.0042	1211.2 ± 1.4
298.15 K, x2 = 0.2541	768.732 ± 1.9	1.40662 ± 0.0042	1228.1 ± 1.4
298.15 K, x2 = 0.3148	778.293 ± 1.9	1.40796 ± 0.0042	1239.3 ± 1.3
298.15 K, x2 = 0.3609	786.012 ± 1.9	1.40908 ± 0.0042	1248.3 ± 1.3
298.15 K, x2 = 0.4077	794.223 ± 1.9	1.41017 ± 0.0042	1258.2 ± 1.3
298.15 K, x2 = 0.4966	810.8 ± 2	1.41247 ± 0.0043	1278.5 ± 1.3
298.15 K, x2 = 0.5386	819.199 ± 2	–	1288.9 ± 1.3
298.15 K, x2 = 0.6082	833.997 ± 2	–	1307.9 ± 1.3
298.15 K, x2 = 0.6527	844.084 ± 2.1	1.41673 ± 0.0043	1321.1 ± 1.3
298.15 K, x2 = 0.7477	867.448 ± 2.1	1.4196 ± 0.0043	1352.4 ± 1.3
298.15 K, x2 = 0.8063	883.226 ± 2.2	1.42147 ± 0.0043	1374 ± 1.3
298.15 K, x2 = 0.902	911.457 ± 2.2	1.42478 ± 0.0043	1413.1 ± 1.4
298.15 K, x2 = 0.9482	926.367 ± 2.3	1.42645 ± 0.0043	1433.5 ± 1.4
303.15 K, x2 = 0.0453	734.885 ± 1.8	1.39971 ± 0.0042	1174 ± 1.4
303.15 K, x2 = 0.1034	742.55 ± 1.8	1.40091 ± 0.0042	1183 ± 1.4
303.15 K, x2 = 0.1963	755.529 ± 1.8	1.40293 ± 0.0042	1198 ± 1.4
303.15 K, x2 = 0.2582	764.775 ± 1.9	1.40419 ± 0.0042	1208.8 ± 1.4
303.15 K, x2 = 0.3559	780.614 ± 1.9	1.40647 ± 0.0042	1227.6 ± 1.3
303.15 K, x2 = 0.4099	790.03 ± 1.9	1.40779 ± 0.0042	1239 ± 1.3
303.15 K, x2 = 0.4565	798.539 ± 1.9	–	1249.4 ± 1.3
303.15 K, x2 = 0.5415	815.193 ± 2	–	1270.3 ± 1.3
303.15 K, x2 = 0.6016	827.909 ± 2	1.41295 ± 0.0043	1286.6 ± 1.3
303.15 K, x2 = 0.6517	839.209 ± 2.1	–	1301.4 ± 1.3
303.15 K, x2 = 0.7502	863.388 ± 2.1	1.41745 ± 0.0043	1334 ± 1.3
303.15 K, x2 = 0.8498	890.941 ± 2.2	1.4207 ± 0.0043	1372 ± 1.3
303.15 K, x2 = 0.9	906.165 ± 2.2	1.42246 ± 0.0043	1393.2 ± 1.4
303.15 K, x2 = 0.9498	922.203 ± 2.3	1.42417 ± 0.0043	1415.2 ± 1.4

CCCCN [1-butanamine] + CN(C)C=O
Conditions	mass density, [1] [kg/m3]	refractive index, [2]	speed of sound, [1] [m/s]
293.15 K, x2 = 0.0599	747.39 ± 1.8	1.40222 ± 0.0042	1277.7 ± 1.4
293.15 K, x2 = 0.1056	755.445 ± 1.8	1.40348 ± 0.0042	1285 ± 1.4
293.15 K, x2 = 0.1591	765.035 ± 1.9	1.40498 ± 0.0042	1293.8 ± 1.4
293.15 K, x2 = 0.201	–	1.40619 ± 0.0042	–
293.15 K, x2 = 0.2505	782.005 ± 1.9	1.4076 ± 0.0042	1309.6 ± 1.4
293.15 K, x2 = 0.3017	791.811 ± 1.9	1.40911 ± 0.0042	1318.9 ± 1.4
293.15 K, x2 = 0.3583	802.88 ± 2	1.41079 ± 0.0043	1329.6 ± 1.3
293.15 K, x2 = 0.3992	811.114 ± 2	1.412 ± 0.0043	1337.8 ± 1.3
293.15 K, x2 = 0.4401	–	1.41322 ± 0.0043	–
293.15 K, x2 = 0.5059	833.13 ± 2	1.41521 ± 0.0043	1359.6 ± 1.3
293.15 K, x2 = 0.5483	842.154 ± 2.1	–	1368.9 ± 1.3
293.15 K, x2 = 0.6043	–	1.41829 ± 0.0043	–
293.15 K, x2 = 0.6569	866.102 ± 2.1	1.41992 ± 0.0043	1393.7 ± 1.3
293.15 K, x2 = 0.6999	875.844 ± 2.1	1.42126 ± 0.0043	1404 ± 1.3
293.15 K, x2 = 0.7537	888.314 ± 2.2	1.42292 ± 0.0043	1416.7 ± 1.3
293.15 K, x2 = 0.8036	900.101 ± 2.2	1.42448 ± 0.0043	1429 ± 1.3
293.15 K, x2 = 0.8579	913.315 ± 2.2	1.42618 ± 0.0043	1442.3 ± 1.3
293.15 K, x2 = 0.9048	924.751 ± 2.3	1.42763 ± 0.0043	1453.7 ± 1.2
293.15 K, x2 = 0.9546	937.212 ± 2.3	1.42915 ± 0.0043	1465.6 ± 1.2
298.15 K, x2 = 0.0575	742.224 ± 1.8	1.39946 ± 0.0042	1255.4 ± 1.4
298.15 K, x2 = 0.1092	751.333 ± 1.8	1.40093 ± 0.0042	1263.9 ± 1.4
298.15 K, x2 = 0.1519	759.015 ± 1.9	1.40215 ± 0.0042	1271.1 ± 1.4
298.15 K, x2 = 0.2043	768.674 ± 1.9	1.40367 ± 0.0042	1280.1 ± 1.4
298.15 K, x2 = 0.2448	776.215 ± 1.9	1.40485 ± 0.0042	1287.4 ± 1.4
298.15 K, x2 = 0.309	788.51 ± 1.9	1.4068 ± 0.0042	1299.3 ± 1.4
298.15 K, x2 = 0.3558	797.705 ± 1.9	1.4082 ± 0.0042	1308.4 ± 1.3
298.15 K, x2 = 0.3986	806.285 ± 2	–	1317 ± 1.3
298.15 K, x2 = 0.4381	814.268 ± 2	–	1324.9 ± 1.3
298.15 K, x2 = 0.5028	827.736 ± 2	1.41274 ± 0.0043	1338.6 ± 1.3
298.15 K, x2 = 0.6005	848.795 ± 2.1	1.41578 ± 0.0043	1360.6 ± 1.3
298.15 K, x2 = 0.6608	–	1.41769 ± 0.0043	–
298.15 K, x2 = 0.6934	869.781 ± 2.1	1.41871 ± 0.0043	1382.5 ± 1.3
298.15 K, x2 = 0.7572	884.516 ± 2.2	1.42076 ± 0.0043	1398 ± 1.3
298.15 K, x2 = 0.8056	895.958 ± 2.2	1.4223 ± 0.0043	1410 ± 1.3
298.15 K, x2 = 0.8546	–	1.42383 ± 0.0043	–
298.15 K, x2 = 0.9076	920.837 ± 2.2	1.42553 ± 0.0043	1435.1 ± 1.2
298.15 K, x2 = 0.9553	932.723 ± 2.3	1.42705 ± 0.0043	1446.6 ± 1.2
303.15 K, x2 = 0.0505	736.213 ± 1.8	1.39644 ± 0.0042	1233 ± 1.4
303.15 K, x2 = 0.1477	753.539 ± 1.8	1.39927 ± 0.0042	1249.4 ± 1.4
303.15 K, x2 = 0.2019	763.466 ± 1.9	1.40087 ± 0.0042	1259 ± 1.4
303.15 K, x2 = 0.241	770.708 ± 1.9	1.40209 ± 0.0042	1266 ± 1.4
303.15 K, x2 = 0.3024	782.423 ± 1.9	1.40392 ± 0.0042	1277.5 ± 1.4
303.15 K, x2 = 0.3558	792.882 ± 1.9	1.40552 ± 0.0042	1287.8 ± 1.3
303.15 K, x2 = 0.3992	–	1.40686 ± 0.0042	–
303.15 K, x2 = 0.4358	808.96 ± 2	1.40802 ± 0.0042	1304.1 ± 1.3
303.15 K, x2 = 0.5114	824.673 ± 2	1.41041 ± 0.0042	1320.3 ± 1.3
303.15 K, x2 = 0.5281	828.281 ± 2	1.41094 ± 0.0043	1324 ± 1.3
303.15 K, x2 = 0.6056	845.104 ± 2.1	1.41337 ± 0.0043	1341.6 ± 1.3
303.15 K, x2 = 0.6574	–	1.41502 ± 0.0043	–
303.15 K, x2 = 0.696	865.473 ± 2.1	1.41625 ± 0.0043	1363.2 ± 1.3
303.15 K, x2 = 0.7558	879.286 ± 2.1	1.4182 ± 0.0043	1377.7 ± 1.3
303.15 K, x2 = 0.8006	889.962 ± 2.2	1.41964 ± 0.0043	1389 ± 1.3
303.15 K, x2 = 0.8544	902.88 ± 2.2	1.42138 ± 0.0043	1402.3 ± 1.2
303.15 K, x2 = 0.8998	914.033 ± 2.2	1.42282 ± 0.0043	1413.7 ± 1.2
303.15 K, x2 = 0.9466	925.732 ± 2.3	1.42431 ± 0.0043	1425.2 ± 1.2
